From patent publication EP3884948A1, “CATHEPSIN INHIBITORS AND USES THEREOF” (Ecole Polytechnique Fédérale de Lausanne (EPFL), priority 2020, dated 2021) come the findings set out here.

Assay [1] concerns CTSS-His-WT and CTSS-His-Y132D. As to the kind of experiment: Mass spectrometry of peptide cleavage by purified CTSS. To be noted: after 15 minutes of incubation with purified CTSS-His-WT and CTSS-His-Y132D. The class given is biochemical, human. As for the experimental part:
(§1) For mass spectrometry experiments, CTSS-His WT and Y132D were activated by incubation at 10 µg/mL in Assay buffer (50 mM NaOAc, 5 mM DTT, 250 mM NaCl, pH 4.5) at 37°C for 90 minutes. 2.5 µg of activated CTSS-His WT and Y132D were then co-incubated with 5 ug of peptide in Assay buffer (final volume: 300 µl) at 37°C for 15 or 30 minutes. The reaction was stopped by addition of 50 µM E64 (Selleckchem, cat #S7379) following the co-incubation. Control reactions were prepared by incubating 5 µg of peptide in 300 µl of Assay buffer at 37°C for 15 or 30 minutes. Control and digested peptides were acidified, desalted on C18 StageTips (Rappsilber et al., 2007) and dried by vacuum centrifugation. Samples were resuspended in LC-MS solvent A (2% Acetonitrile, 0.1% TFA) and equivalent sample amounts (3 to 10 ng) injections were performed. Nano-flow separations were achieved on a Dionex Ultimate 3000 RSLC nano UPLC system (Thermo Fischer Scientific) on-line connected with a Q-Exactive Mass-Spectrometer (Thermo Fischer Scientific). Samples were first trapped on a capillary C18 pre-column (Acclaim PepMap™ 100, 75 µm x 2cm) and then separated on a C18 home-made capillary column (ReproSil-Pur C18 AQ 1.9 µm; 50 cm x 75 µm ID) at 250 nl/min over a biphasic 60 min gradient ranging from 99% of solvent A (2% Acetonitrile and 0.1% Formic acid) to 90% of solvent B (90% Acetonitrile and 0.1% Formic acid). The mass spectrometer was operated in Data Dependent acquisition mode using a scan range of 200 to 1500 m/z. MS resolution was set to 70K and MS2 resolution to 17,5K. An isolation window of 2 m/z was used when selecting ions to fragment by HCD and the Normalized Collision Energy (NCE) was set to 27. Data were inspected and dedicated traces extracted with Xcalibur Qual Browser software (Thermo Fischer Scientific). The peptides used were the following: CD74 ([…]) (SEQ ID NO: 16), HSPA1/8 ([…]) (SEQ ID NO: 17), OVA ([…]) (SEQ ID NO: 18), HA ([…]) (SEQ ID NO: 19).

Assay [2] has as its target T1, CTSS-His-WT and CTSS-His-Y132D (Homo sapiens, UniProt P25774).
T1 construct: made in house; host or cells: HEK293
Described as above. The class given is biochemical. To be noted: incubated with purified CTSS-His-WT for 30 minutes. The procedure: as §1

Consider EEIERMVQEAEKYKAEDEVQ [SEQ ID NO: 17], for which the peptides cleaved in assay [1] was 35-40%.

In the case of IKVYLPRMKMEEKYNLTSVL [SEQ ID NO: 18], in assay [2], the “cleavage by CTSS” value is given as “can cleave”.

Consider NVKNLYEKVKSQLKNNAKEI [SEQ ID NO: 19], for which the “cleavage by CTSS” value in assay [2] is listed as “can cleave”.

Regarding QLENLRMKLPKPPKPVSKMR [SEQ ID NO: 16], in assay [1], the peptides cleaved entry is “completely cleaved”.
